Source: patent publication US20100055133A1, “PHARMACEUTICAL COMPOSITIONS” (Biovail Laboratories International (Barbados) S.R.L, priority 2008, published 2010)

Experiment: Tetrabenazine solubility across the pH range 2-12 (Comparative Example 1)
Format: physicochemical
Method: The following example employs immediate-release tablets of tetrabenazine, in contrast to the controlled-release tablets of the present invention, to determine the solubility of tetrabenazine across the pH range 2-12.
The dissolution of tetrabenazine 12.5 mg and 25 mg immediate-release tablets was conducted in 0.1 M hydrochloric acid solution (pH 1.5).
The solubility of tetrabenazine was determined across the pH range 2-12 in water, adjusted with hydrochloric acid/sodium hydroxide as necessary and if feasible complete dissolutions at pH 7.0 and pH 12.
All samples were protected from light throughout the experiment.

solubility (between pH 4 and pH 12): approximately 3.0 mg/100 ml | solubility category (between pH 4 and pH 12): practically insoluble | solubility category (pH 2): slightly soluble | solubility (pH 3): approximately 4.0 mg/100 ml | solubility category (pH 3): practically insoluble | solubility category (pH range of 3-12): practically insoluble
Compound: COc1cc2c(cc1OC)C1CC(=O)C(CC(C)C)CN1CC2 (stereo not drawn) [tetrabenazine, 1,3,4,6,7,11b-hexahydro-9,10-dimethoxy-3-(2-methylpropyl)-2H-benzo(a)quinolizin-2-one]
